Literature values in patent publication US20260174914A1, “METHOD OF TREATING PSMA-EXPRESSING CANCERS” (ENDOCYTE, INC., priority 2020, published 2026).

## XOMA 089: fully human monoclonal antibody that specifically binds and neutralizes TGF-beta 1 and 2 ligands
Rodent TGF-β
  cross-reactivity with rodent TGF-β: cross-reacts
Cynomolgus monkey TGF-β
  cross-reactivity with cynomolgus monkey TGF-β: cross-reacts
